Assay type in all cases: cell-based, human
One experiment has as its system HO-1. As to the kind of experiment: HO-1 protein levels by ELISA. The conditions noted are these: 48 h. On the procedure: Protein expression levels of HO-1 were determined by ELISA (enzyme-linked immunosorbent assay) using a commercial kit (#ab207621, Abcam) according to the manufacturer's instructions. For this purpose, cells were seeded onto PLO/FN coated 6-well microplates. After the pharmacological treatments, cells were washed with warm HBSS, trypsinized and pelleted as before, and finally lysed in 100 µl cell extraction buffer PTR provided by the kit. Sample concentration was measured by BCA, as previously mentioned, and 1 µg of total protein extract was loaded into the respective wells. All samples were run in duplicates and the absorbances were measured on a FLUOstar® Omega plate reader at λ 450 nm. For data analysis, we used the MARS software (BMG LabTech). First, we calculated the means of the absorbances for each condition. The mean value of the blank control (i.e., a condition with only sample diluent buffer) was subtracted from the mean values of all standard and experimental conditions. A 4PL-curve fit was plotted on Prism 9 software (GraphPad Software, San Diego, CA, USA), using the blank-corrected mean values of standard conditions. The obtained curve was used to determine the HO-1 protein concentration, followed by multiplication by the dilution factor to obtain the concentration of the target-protein in each sample.
A general note: An ELISA detects its analyte on a solid surface through an enzyme-linked reagent.

In a further experiment the test system is total tau transcripts. Description: Total tau mRNA by RT-qPCR. The conditions noted are these: 20 nM annonacin alone, 48 h, vs control. On the procedure: (§1) LUHMES cells were seeded on PLO/FN coated 6-well microplates and the pharmacological treatments were performed as previously explained. The cells were washed in HBSS, prior to being collected for mRNA isolation (RNeasy® Plus Mini Kit, Qiagen, Venlo, Netherlands), following the manufacturer’s instructions. The mRNA concentrations were determined on a Nano-Drop 2000c (Thermo Fisher Scientific) and 1 µg of mRNA was reverse-transcribed into cDNA with the iScript™ Reverse Transcription Supermix for RT-qPCR Kit (Bio-Rad) on a thermal cycler (SensoQuest, Göttingen, Germany). Real-time PCR was performed using SYBR™ Select Master Mix for CFX (Thermo Fisher Scientific) with 30 ng cDNA and 0.4 µM of primers against the respective target genes (Supplementary Table S3), in a 20 µl total volume, on a CFX96 Touch™ Real-Time Cycler (Bio-Rad). The relative expression of mRNA was calculated using the CFX Manager software (ΔΔCt method) from Bio-Rad, and the Ct values of the target-genes were normalized to the reference genes RPL22 and UBQLN1. The data were reported as fold change relative to the control (DMSO-treated) condition.

A further experiment relates to 3R-tau transcripts. Description: 3R-tau mRNA by RT-qPCR. The conditions noted are these: 20 nM annonacin alone, 48 h, vs control. On the procedure: as §1
For orientation: In qPCR the cycle at which signal appears reflects the starting amount.

For a further experiment, the system named is NQO1. As to the kind of experiment: NQO1 mRNA after siRNA transfection (RT-qPCR). As to conditions: Nrf2 siRNA transfected cells, annonacin model. On the procedure: as §1, with “Real-time PCR was performed using SYBR™ Select Master Mix for CFX (Thermo Fisher Scientific) with 30 ng cDNA and 0.4 µM of primers against the respective target genes (Supplementary Table S3), in a 20 µl total volume, on a CFX96 Touch™ Real-Time Cycler (Bio-Rad).” left out, “The data were reported as fold change relative to the control (DMSO-treated) condition.” left out
LUHMES cells seeded on PLO/FN coated 48-well microplates were left to differentiate for 5 days, before being transfected with 25 nM of NRF2-targeting (gene ID 4780) or negative control siRNA (siTOOLs Biotech, Planegg, Germany), in Opti-MEM + GlutaMax medium (Thermo Fisher Scientific) with 0.4% of lipofectamine RNAiMax. […] Cell viability was determined by calcein assay, after 48 h of treatment, as explained before.

The source of these data is PMC11362529, “Exploring the neuroprotective potential of Nrf2-pathway activators against annonacin toxicity” (Scientific Reports, 2024).

For the molecule `Cn1c(Nc2nc3ccc(C(F)(F)F)cc3s2)nc2cc(C(=O)NCCOCCO)ccc21` [HPP-D], the HO-1 protein expression result in the experiment on HO-1 (absence of annonacin) and in the experiment on HO-1 (presence of 20 nM annonacin) was “significantly increased the HO-1 protein expression” in each case.
Turning to `CCCCCCCCCCCC[C@@H](O)[C@H]1CC[C@H]([C@H](O)CCCC[C@H](O)CCCCC[C@@H](O)CC2=CC(C)OC2=O)O1` (some centres unmarked) [annonacin], the total tau transcripts entry in the experiment with total tau transcripts is listed as “significantly downregulated”. In addition, in the experiment with 3R-tau transcripts, the 3R-tau transcripts entry is given as “downregulation of 3R-tau transcripts”.
Take `C=CC(C)(C)c1cc(/C=C/C(=O)c2ccc(O)cc2)c(OC)cc1O` [licochalcone A]: the “NQO1 expression despite Nrf2 knockdown” value with NQO1 is “still led to an induction of NQO1 expression”.
